How the values were obtained:
huPPARα = target: T1, huPPARα (Homo sapiens, UniProt Q07869); test: DNA-dependent binding (ABCD binding) using SPA technology, huPPARα; details: SPA displacement of tritium-labeled PPARα agonist radioligand
T1 sequence (Q07869 1-468): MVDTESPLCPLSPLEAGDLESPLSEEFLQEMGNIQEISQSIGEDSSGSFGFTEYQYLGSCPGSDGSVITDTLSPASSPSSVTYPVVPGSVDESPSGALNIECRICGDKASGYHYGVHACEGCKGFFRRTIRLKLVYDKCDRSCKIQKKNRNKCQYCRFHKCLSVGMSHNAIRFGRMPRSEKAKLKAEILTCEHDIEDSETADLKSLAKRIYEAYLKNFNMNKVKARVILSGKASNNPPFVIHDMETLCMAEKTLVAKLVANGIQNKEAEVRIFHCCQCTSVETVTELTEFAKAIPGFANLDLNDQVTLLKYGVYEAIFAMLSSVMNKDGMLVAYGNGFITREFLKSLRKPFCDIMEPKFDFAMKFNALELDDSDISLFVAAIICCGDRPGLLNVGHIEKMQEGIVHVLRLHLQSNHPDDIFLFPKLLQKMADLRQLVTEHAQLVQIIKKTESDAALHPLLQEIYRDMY
T1 sequence (P19793 1-462 partner): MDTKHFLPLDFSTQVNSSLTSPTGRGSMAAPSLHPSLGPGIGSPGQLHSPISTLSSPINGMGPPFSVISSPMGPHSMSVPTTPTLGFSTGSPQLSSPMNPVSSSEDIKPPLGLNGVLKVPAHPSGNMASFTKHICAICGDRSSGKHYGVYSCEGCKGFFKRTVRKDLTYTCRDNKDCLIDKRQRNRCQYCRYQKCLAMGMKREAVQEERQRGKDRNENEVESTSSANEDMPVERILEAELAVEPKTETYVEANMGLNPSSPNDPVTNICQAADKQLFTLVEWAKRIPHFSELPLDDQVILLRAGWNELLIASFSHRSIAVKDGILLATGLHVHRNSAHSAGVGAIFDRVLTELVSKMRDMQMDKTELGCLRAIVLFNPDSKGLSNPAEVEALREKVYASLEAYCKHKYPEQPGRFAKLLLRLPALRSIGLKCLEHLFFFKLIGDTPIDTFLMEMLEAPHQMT
Protocol: DNA-dependent binding (ABCD binding) was carried out using SPA technology with PPAR receptors. Tritium-labeled PPARα and PPARγ agonists were used as radioligands for generating displacement curves and IC50 values with compounds of the invention. Cotransfection assays were carried out in CV-1 cells. The reporter plasmid contained an acylCoA oxidase (AOX) PPRE and TK promoter upstream of the luciferase reporter cDNA. Appropriate PPARs and RXRα were constitutively expressed using plasmids containing the CMV promoter. […] In order to eliminate such interference, a GAL4 chimeric system was used in which the DNA binding domain of the transfected PPAR was replaced by that of GAL4, and the GAL4 response element was utilized in place of the AOX PPRE. Cotransfection efficacy was determined relative to PPARα agonist and PPARγ agonist reference molecules. Efficacies were determined by computer fit to a concentration-response curve, or in some cases at a single high concentration of agonist (10 μM). For binding or cotransfection studies with receptors other than PPARs, similar assays were carried out using appropriate ligands, receptors, reporter constructs, etc., for that particular receptor.
These studies were carried out to evaluate the ability of compounds of the invention to bind to and/or activate various nuclear transcription factors, particularly huPPARα (“hu” indicates “human”) and huPPARγ. These studies provide in vitro data concerning efficacy and selectivity of compounds of the invention. Furthermore, binding and cotransfection data for compounds of the invention were compared with corresponding data for marketed compounds that act on either huPPARα or huPPARγ.

HuapoAI transgenic mice = test: Evaluation of triglyceride and cholesterol level in HuapoAI transgenic mice; format: in vivo; details: Mus musculus, 168 h, human apoAI transgenic mice, 30 mg/kg oral gavage daily for 7 days; for change in vivo at 30 mg/kg: FPLC area under the curve, over mice receiving vehicle, read-out: % HDLc Increase; for inhibition in vivo at 30 mg/kg: serum 3 h after dosing, read-out: Reduction in Triglyceride Serum Level
Protocol: After an acclimation period of 2 weeks, animals were individually identified by ear notches, weighed, and assigned to groups based on body weight. Beginning the following morning, mice were dosed daily by oral gavage for 7 days using a 20 gauge, 1½″ curved disposable feeding needle (Popper & Sons). […] Prior to termination on day 7, mice were weighed and dosed. Three hours after dosing, animals were anesthetized by inhalation of isoflurane (2-4%; Abbott Laboratories, Chicago, Ill.) and blood obtained via cardiac puncture (0.7-1.0 ml). Whole blood was transferred to serum separator tubes (Vacutainer SST), chilled on ice, and permitted to clot. Serum was obtained after centrifugation at 4° C. and frozen until analysis for triglycerides, total cholesterol, compound levels, and serum lipoprotein profile by fast protein liquid chromatography (FPLC) coupled to an inline detection system. After sacrifice by cervical dislocation, the liver, heart and epididymal fat pads were excised and weighed.
The absorbance of the dye produced is linearly related to the analyte in the sample. The assays were further modified in our laboratory for use in a 96 well format. […] An additional aliquot of sample, pipetted to a third well and diluted in 200 μl water, provided a blank for each specimen. […] Sample absorbances were compared to a standard curve (100-800, 10-500, and 100-400 mg/dl for glucose, triglycerides and total cholesterol, respectively). […] All samples from an experiment were assayed at the same time to minimize inter-assay variability.
Serum lipoproteins were separated and cholesterol quantitated with an in-line detection system. Sample was applied to a Superose® 6 HR 10/30 size exclusion column (Amersham Pharmacia Biotech) and eluted with phosphate buffered saline-EDTA at 0.5 ml/min. […] The change in voltage corresponding to change in cholesterol concentration was plotted vs time and the area under the curve corresponding to the elution of VLDL, LDL and HDL was calculated using Perkin Elmer Turbochrome software.

Row | IC50 (huPPARα) [nM] | SMILES | change in vivo at 30 mg/kg (HuapoAI transgenic mice) [%] | inhibition in vivo at 30 mg/kg (HuapoAI transgenic mice) [%]
1 | 63 | Cc1oc(-c2cccc(Br)c2)nc1CCOc1ccc(CC(C)(Oc2ccccc2)C(=O)O)cc1 (stereo not drawn) [Example 8, 3-(4-{2-[2-(3-Bromophenyl)-5-methyloxazol-4-yl]ethoxy}phenyl)-2-methyl-2-phenoxypropionic acid] | 34 | 
2 | 41 | Cc1oc(C2(C)CCCCC2)nc1CCOc1ccc(CC(C)(Oc2ccccc2)C(=O)O)cc1 (stereo not drawn) [Example 9, 2-Methyl-3-(4-{2-[5-methyl-2-(1-methylcyclohexyl)oxazol-4-yl]ethoxy}phenyl)-2-phenoxypropionic acid] | 123 | 19.8
3 | 68 | Cc1oc(-c2cccs2)nc1CCOc1ccc(CC(C)(Oc2ccc(C(C)(C)C)cc2)C(=O)O)cc1 (stereo not drawn) [Example 17, 2-Methyl-3-{4-[2-(5-methyl-2-thiophen-2-yl-oxazol-4-yl)-ethoxy]-phenyl}-2-(4-tert-butylphenoxy)-propionic acid] | 119 | 78.7
4 | 72 | Cc1oc(C2CCCCC2)nc1CCOc1ccc(CC(C)(Oc2ccc(C(C)(C)C)cc2)C(=O)O)cc1 (stereo not drawn) [Example 18, 2-Methyl-3-(4-{2-[5-methyl-2-cyclohexylyl-oxazol-4-yl]-ethoxy}-phenyl)-2-(4-tert-butylphenoxy)-propionic acid] | 141 | 69
5 | 85 | COc1ccc(OC(C)(Cc2ccc(OCCc3nc(-c4cccs4)oc3C)cc2)C(=O)O)cc1 (stereo not drawn) [Example 19, 2-Methyl-3-{4-[2-(5-methyl-2-thiophen-2-yl-oxazol-4-yl)-ethoxy]-phenyl}-2-(4-methoxyphenoxy)-propionic acid] | 89 | 40
6 | 70 | Cc1oc(-c2cccs2)nc1CCOc1ccc(CC(C)(Oc2cccc(F)c2)C(=O)O)cc1 (stereo not drawn) [Example 22, 2-(3-Fluoro-phenoxy)-2-methyl-3-{4-[2-(5-methyl-2-thiophen-2-yl-oxazol-4-yl)-ethoxy]-phenyl}-propionic acid] | 29 | 19.5
7 | 63 | Cc1oc(C2CCCCC2)nc1CCOc1ccc(CC(C)(Oc2cccc(F)c2)C(=O)O)cc1 (stereo not drawn) [Example 23, 2-(3-Fluoro-phenoxy)-2-methyl-3-{4-[2-(5-methyl-2-cyclohexyl-oxazol-4-yl)-ethoxy]-phenyl}-propionic acid] | 54 | 52.5
8 | 73 | Cc1oc(-c2cccs2)nc1CCOc1ccc(CC(C)(Oc2cccc(C(C)(C)C)c2)C(=O)O)cc1 (stereo not drawn) [Example 25, 2-(3-tert-Butyl-phenoxy)-2-methyl-3-{4-[2-(5-methyl-2-thiophen-2-yl-oxazol-4-yl)-ethoxy]-phenyl}-propionic acid] | 8 | 35.5
9 | 75 | Cc1oc(-c2cccs2)nc1CCOc1ccc(CC(C)(Oc2ccccc2F)C(=O)O)cc1 (stereo not drawn) [Example 27, 2-(2-Fluoro-phenoxy)-2-methyl-3-{4-[2-(5-methyl-2-thiophen-2-yl-oxazol-4-yl)-ethoxy]-phenyl}-propionic acid] | 49 | 36.8
10 | 116 | Cc1oc(-c2ccccc2)nc1CCOc1ccc(CC(C)(Oc2ccc(Cl)cc2)C(=O)O)cc1 (stereo not drawn) [Example 29, 2-(4-Chloro-phenoxy)-2-methyl-3-{4-[2-(5-methyl-2-phenyl-oxazol-4-yl)-ethoxy]-phenyl}-propionic acid] | 78 | 
11 | 91 | Cc1oc(C2CCCCC2)nc1CCOc1ccc(CC(C)(Oc2ccc(C3CCCCC3)cc2)C(=O)O)cc1 (stereo not drawn) [Example 34, 3-{4-[2-(2-Cyclohexyl-5-methyl-oxazol-4-yl)-ethoxy]-phenyl}-2-(4-cyclohexyl-phenoxy)-2-methyl-propionic acid] | 95 | 57.1
12 | 66 | Cc1ccc(OC(C)(Cc2ccc(OCCc3nc(C4CCCCC4)oc3C)cc2)C(=O)O)cc1C (stereo not drawn) [Example 35, 3-{4-[2-(2-Cyclohexyl-5-methyl-oxazol-4-yl)-ethoxy]-phenyl}-2-(3,4-dimethyl-phenoxy)-2-methyl-propionic acid] | 77 | 32.3
13 | 72 | Cc1ccc(OC(C)(Cc2ccc(OCCc3nc(-c4cccs4)oc3C)cc2)C(=O)O)cc1C (stereo not drawn) [Example 36, 2-(3,4-Dimethyl-phenoxy)-2-methyl-3-{4-[2-(5-methyl-2-thiophen-2-yl-oxazol-4-yl)-ethoxy]-phenyl}-propionic acid] | 30 | 23
14 | 50 | Cc1ccc(OC(C)(Cc2ccc(OCCc3nc(-c4cccs4)oc3C)cc2)C(=O)O)cc1 (stereo not drawn) [Example 40, 2-Methyl-3-{4-[2-(5-methyl-2-thiophen-2-yl-oxazol-4-yl)-ethoxy]-phenyl}-2-p-tolyloxy-propionic acid] | 131 | 77.6
15 | 66 | Cc1ccc(OC(C)(Cc2ccc(OCCc3nc(C4CCCCC4)oc3C)cc2)C(=O)O)cc1 (stereo not drawn) [Example 41, 3-{4-[2-(2-Cyclohexyl-5-methyl-oxazol-4-yl)-ethoxy]-phenyl}-2-methyl-2-p-tolyloxy-propionic acid] | 96 | 57.8
16 | 157 | Cc1oc(C2CCCCC2)nc1CCOc1ccc(CC(C)(Oc2ccc(OC(F)(F)F)cc2)C(=O)O)cc1 (stereo not drawn) [Example 44, 3-{4-[2-(2-Cyclohexyl-5-methyl-oxazol-4-yl)-ethoxy]-phenyl}-2-methyl-2-(4-trifluoromethoxy-phenoxy)-propionic acid] | 151 | 
17 | 64 | Cc1oc(-c2cccs2)nc1CCOc1ccc(CC(C)(Oc2ccc(C(F)(F)F)cc2)C(=O)O)cc1 (stereo not drawn) [Example 51, 2-Methyl-3-{4-[2-(5-methyl-2-thiophen-2-yl-oxazol-4-yl)-ethoxy]-phenyl}-2-(4-trifluoromethyl-phenoxy)-propionic acid] | 122 | 72.8
